Columns and labels:
[1] = cited from earlier work
[2] = Stability study under accelerated conditions (ICH guidelines); assay type: physicochemical; settings: three months
Experimental: The batch samples prepared under Example 1 were evaluated for stability under accelerated conditions under ICH guidelines and three months stability results are furnished in Table 4. Physical Examination Specification: Size 0 elongated hard gelatin capsule with an opaque white cap and a natural body. Capsules were substantially free from rough edges and spots and were filled with off white colored coated microcrystalline cellulose spheres.

- degradation of itraconazole [2]: no significant degradation
Structure (SMILES): CCC(C)n1ncn(-c2ccc(N3CCN(c4ccc(OCC5COC(Cn6cncn6)(c6ccc(Cl)cc6Cl)O5)cc4)CC3)cc2)c1=O (racemic) [Itraconazole, (±)-cis-4-[4-[4-[4-[[2-(2,4-dichlorophenyl)-2-(1H-1,2,4-triazol-1-ylmethyl)-1,3-dioxolan-4-yl]methoxy]phenyl]-1-piperazinyl]phenyl]-2,4-dihydro-2-(1-methylpropyl)-3H-1,2,4-triazol-3-one]
- 0.1 N Hydrochloric acid solubility ([1]; 0.1 N Hydrochloric acid): < 6 micrograms per milliliter
- water solubility ([1]; water): less than 1 microgram per milliliter
